The values that follow come from patent publication US5595999A, “Guanidine derivatives” (Hoffmann-La Roche Inc., priority 1990, dated 1997).

The target in one series is human thrombin (Homo sapiens, UniProt P00734). Put plainly: Inhibition of amidolytic activity of thrombin (chromogenic substrate S-2238). It counts as biochemical. As to conditions: human thrombin 0.5 nM final conc., S-2238, pH 7.8, room temperature. The procedure:
(§1) A differential inhibition of thrombin and other serine proteases by the above compounds is desirable in order to obtain compounds having as high a specificity as possible and at the same time to avoid possible side-effects.
(§2) Specific chromogenic peptide substrates can be used to determine the inhibition of the catalytic activity of the above proteases. The inhibition of the amidolytic activity of thrombin and trypsin by the above guanidines was determined as described hereinafter.
(§3) The measurements were carried out on microtiter plates at room temperature. For this, in each well of the plate 150 μl of buffer (50 mM Tris, 100 mM NaCl, 0.1% polyethylene glycol; pH 7.8) were mixed with 50 μl of the inhibitor dissolved in DMSO and diluted in the buffer, and 25 μl of human thrombin (0.5 nM final conc.) were added. After incubation for 10 minutes, the reaction was started by the addition of chromogenic substrate S-2238 (H-D-Phe-Pip-Arg-paranitroaniline from Kabivitrum; 10 or 50 μm final conc.) and the hydrolysis of the substrate was followed spectrophotometrically on a kinetic microliter plate reader for 5 minutes. After graphical presentation of the inhibition curves, the Ki values were determined according to the method described in Biochem. J. 55, 1955, 170-171. The inhibition of trypsin was effected analogously, but using the substrate S-2251 (H-D-Val-Leu-Lys-paranitroaniline) in 200 and 750 μM final concentration.

For the next series, the target named is trypsin. Put plainly: Inhibition of amidolytic activity of trypsin (chromogenic substrate S-2251). It counts as biochemical. To be noted: S-2251, 200 and 750 μM final concentration, pH 7.8, room temperature. The procedure:
as §1, §2, §3

Series [1] is described as follows: Toxicity in mice upon intravenous administration. As to conditions: mouse, in vivo. The procedure: The guanidines of formula I have a low toxicity. Thus, the products of Example 8, 13a, 14i and 18f have an LD50 of 30-50mg/kg in mice upon intravenous administration.

With `N=C(N)N1CCCC(CNC(=O)[C@@H](Cc2ccccc2)NS(=O)(=O)c2ccc3ccccc3c2)C1` (stereo partly drawn) [Example 9, (R)-N-[(RS)-1-amidino-3-piperidinylmethyl]-α-(2-naphthylsulfonamido)hydrocinnamide], the Ki came out at 135 nM on human thrombin and 169000 nM on trypsin.
For `N=C(N)N1CCCC(CNC(=O)[C@@H](Cc2ccccc2[N+](=O)[O-])NS(=O)(=O)c2ccc3ccccc3c2)C1` (mixture of isomers) [Example 13a, (R)-N-[(RS)-1-Amidino-3-piperidinylmethyl]-α-(2-naphthylsulfonamido)-o-nitrohydrocinnamamide], the values for the Ki on human thrombin and on trypsin were 20.8 nM and 29200 nM, respectively. The same molecule showed an LD50 in series [1] of 30 to 50 mg/kg.
With `N=C(N)N1CCC[C@@H](CNC(=O)[C@@H](Cc2ccc([N+](=O)[O-])cc2)NS(=O)(=O)c2ccc(I)cc2)C1` [Example 17j, (R)-N-[(S)-1-Amidino-3-piperidinylmethyl]-α-(p-iodo-benzenesulfonamido)-p-nitrohydrocinnamamide], the Ki at human thrombin worked out at 26.1 nM; on trypsin, 14800 nM.
Turning to `N=C(N)N1CCC[C@@H](CNC(=O)[C@@H](Cc2ccc3ccccc3c2)NS(=O)(=O)c2ccc(I)cc2)C1` [Example 17f, (R)-N-[(S)-1-Amidino-3-piperidinylmethyl]-α-(p-iodobenzenesulfonamido)-2-naphthylpropionamide], on human thrombin, the affinity, expressed as Ki, was 41.3 nM.
At human thrombin, `N=C(N)N1CCCC(CNC(=O)[C@@H](CC(=O)c2ccccc2N)NS(=O)(=O)c2ccc3ccccc3c2)C1` (stereo partly drawn) [Example 18f, (R)-N-[(RS)-1-Amidino-3-piperidinylmethyl]-3-(o-aminobenzoyl)-2-(naphthylsulfonamido)propionamide] showed a Ki of 16 nM. The LD50 in series [1] is 30 to 50 mg/kg.
In the case of `N=C(N)N1CCCC(CNC(=O)[C@@H](Cc2c[nH]c3ccccc23)NS(=O)(=O)c2ccccc2[N+](=O)[O-])C1` (mixture of isomers) [Example 14i, (R)-N-[(RS)-1-Amidino-3-piperidinylmethyl]-α-(o-nitrobenzenesulfonamido)indole-3-propionamide], the Ki at human thrombin was 25 nM; on trypsin it was 38000 nM. The same molecule yielded an LD50 in series [1] of 30 to 50 mg/kg.
For `N=C(N)N1CCCC(CNC(=O)[C@@H](CN2C(=O)C(=O)c3ccccc32)NS(=O)(=O)c2ccc3ccccc3c2)C1` (some centres unmarked) [Example 8] the same measures were 8.55 nM, 20100 nM and 30 to 50 mg/kg.
As for `N=C(N)N1CCC[C@@H](COC(=O)[C@@H](Cc2c[nH]c3ccccc23)NS(=O)(=O)c2ccc(I)cc2)C1` [Example 17c, N-(p-Iodophenylsulfonyl)-D-tryptophan (R)-1-amidino-3-piperidinylmethyl ester], the results for the Ki at human thrombin and on trypsin were 58 nM and 10000 nM, respectively.
For `N=C(N)N1CCC[C@@H](CNC(=O)[C@@H](Cc2c[nH]c3ccccc23)NS(=O)(=O)c2ccc(I)cc2)C1` [Example 17b, (R)-N-[(S)-1-Amidino-3-piperidinylmethyl]-α-(p-iodobenzenesulfonamido)indole-3-propionamide] the same measures were 20.7 nM and 6300 nM.

What is called Ki is the dissociation constant of the complex between target and ligand, obtained from inhibition or displacement. A lower Ki goes with tighter binding. As usually defined, the LD50 is the dose at which mortality reaches 50%. Lower therefore signals a more toxic substance.
